Target: ATP-binding cassette sub-family C member 2 (Homo sapiens, UniProt Q92887)
Assay: TP_TRANSPORTER: transepithelial transport (basal to apical) in MRP2-expressing MDCKII cells
Assay type: functional, cell-based
Details: dog, mdck-ii

ATP-binding cassette sub-family C member 2, sequence (Q92887 whole entry): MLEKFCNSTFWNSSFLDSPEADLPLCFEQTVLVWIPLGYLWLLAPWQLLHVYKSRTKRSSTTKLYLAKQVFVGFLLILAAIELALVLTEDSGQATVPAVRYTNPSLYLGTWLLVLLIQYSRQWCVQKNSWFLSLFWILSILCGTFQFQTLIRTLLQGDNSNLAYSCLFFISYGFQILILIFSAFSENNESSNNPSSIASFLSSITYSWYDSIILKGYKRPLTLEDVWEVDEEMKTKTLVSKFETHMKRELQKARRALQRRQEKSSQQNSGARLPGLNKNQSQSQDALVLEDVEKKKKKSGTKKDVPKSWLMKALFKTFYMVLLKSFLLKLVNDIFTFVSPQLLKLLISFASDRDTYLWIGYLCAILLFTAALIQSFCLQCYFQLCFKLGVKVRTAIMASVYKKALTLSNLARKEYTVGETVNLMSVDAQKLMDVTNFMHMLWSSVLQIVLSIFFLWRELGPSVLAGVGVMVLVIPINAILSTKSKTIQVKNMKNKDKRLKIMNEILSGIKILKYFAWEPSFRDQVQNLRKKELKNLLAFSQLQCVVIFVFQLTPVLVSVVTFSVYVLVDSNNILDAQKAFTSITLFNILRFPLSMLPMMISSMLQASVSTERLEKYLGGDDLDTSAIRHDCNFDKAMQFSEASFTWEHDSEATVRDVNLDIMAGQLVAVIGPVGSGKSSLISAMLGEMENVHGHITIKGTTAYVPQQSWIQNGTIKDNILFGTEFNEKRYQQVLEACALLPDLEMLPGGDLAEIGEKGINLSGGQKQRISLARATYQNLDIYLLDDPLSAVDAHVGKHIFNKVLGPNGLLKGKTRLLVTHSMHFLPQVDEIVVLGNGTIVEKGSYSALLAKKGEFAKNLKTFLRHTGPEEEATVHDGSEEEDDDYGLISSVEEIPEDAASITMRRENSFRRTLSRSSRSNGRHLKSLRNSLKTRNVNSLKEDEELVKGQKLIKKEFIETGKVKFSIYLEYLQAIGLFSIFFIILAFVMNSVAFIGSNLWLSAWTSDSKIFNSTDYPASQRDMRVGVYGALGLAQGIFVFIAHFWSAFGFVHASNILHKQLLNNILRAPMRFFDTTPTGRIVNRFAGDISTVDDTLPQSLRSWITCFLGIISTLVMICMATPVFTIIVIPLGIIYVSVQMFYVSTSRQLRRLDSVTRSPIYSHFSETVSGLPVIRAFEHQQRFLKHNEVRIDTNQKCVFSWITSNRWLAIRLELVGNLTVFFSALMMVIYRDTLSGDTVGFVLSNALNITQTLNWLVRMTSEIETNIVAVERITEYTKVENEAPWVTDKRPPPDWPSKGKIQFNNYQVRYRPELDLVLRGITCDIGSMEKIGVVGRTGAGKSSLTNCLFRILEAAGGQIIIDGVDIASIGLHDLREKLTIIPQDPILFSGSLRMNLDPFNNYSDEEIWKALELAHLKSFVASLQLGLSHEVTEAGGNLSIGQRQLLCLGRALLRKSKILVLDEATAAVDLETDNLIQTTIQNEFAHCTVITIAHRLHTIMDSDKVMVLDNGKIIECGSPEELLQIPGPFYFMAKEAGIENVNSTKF

- Activity: substrate [+]
Compound: CC(C)(C)NC(=O)[C@@H]1CN(Cc2cccnc2)CCN1C[C@@H](O)C[C@@H](Cc1ccccc1)C(=O)N[C@H]1c2ccccc2C[C@H]1O.O
